Reference: patent US20110112299A1, “TETRACYCLIC COMPOUND” (KYOWA HAKKO KIRIN CO., LTD., priority 2008, published 2011)

Tests used:
[1] = molecular target: T1, recombinant human progesterone receptor (Homo sapiens, UniProt P06401); assay: Human progesterone receptor assay (fluorescence polarization, Test Example 2); type: binding; settings: at a concentration of 1000 nmol/L
T1 construct: purchased Panvera/Invitrogen P2899 (kit P2895)
T1 sequence (P06401 675-933 limits assumed): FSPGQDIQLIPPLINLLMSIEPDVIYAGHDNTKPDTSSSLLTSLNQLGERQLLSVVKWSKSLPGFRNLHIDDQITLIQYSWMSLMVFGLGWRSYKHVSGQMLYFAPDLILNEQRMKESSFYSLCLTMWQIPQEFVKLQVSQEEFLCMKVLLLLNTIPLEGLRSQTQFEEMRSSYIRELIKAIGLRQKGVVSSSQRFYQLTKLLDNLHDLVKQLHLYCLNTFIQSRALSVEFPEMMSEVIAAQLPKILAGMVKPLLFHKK
Procedure: In this assay, a fluorescence polarization assay kit (Panvera/Invitrogen, product number: P2895) was used. The recombinant human progesterone receptor (product number: P2899), the Fluoromore (trademark)-labeled progesterone (PL Green, product number: P2897), and the basic buffer solution (product number: P2901) which were used in the assay kit had been stored at −80° C. until used. A buffer solution for the assay was prepared by adding 250 fold dilution of 1 mol/L DTT to the basic buffer solution to give a final concentration of 4 mmol/L.
The assay was performed as follows. The test compound was diluted to 2-fold of the desired concentration with the buffer solution for the assay, and 16 μL of that was added to each well. […] The fluorescence polarization value of each well was measured using a plate reader (PerkinElmer, Fusion or Envision). […] To a positive control group, mifepristone (RU-486) was added so as to give a final concentration of 1 μmol/L. The progesterone receptor binding rate (%) was calculated by the following formula.
Progesterone receptor binding rate (%)=100×[1−(fluorescence polarization value of test compound solution−fluorescence polarization value of positive control solution)/(fluorescence polarization value of negative control solution−fluorescence polarization value of positive control solution)]

[2] = molecular target: T2, recombinant human glucocorticoid receptor (Homo sapiens, UniProt P04150); assay: Human glucocorticoid receptor assay (fluorescence polarization, Test Example 1); type: binding
T2 construct: purchased Panvera/Invitrogen P2812 (kit P2893)
T2 sequence (P04150 1-777): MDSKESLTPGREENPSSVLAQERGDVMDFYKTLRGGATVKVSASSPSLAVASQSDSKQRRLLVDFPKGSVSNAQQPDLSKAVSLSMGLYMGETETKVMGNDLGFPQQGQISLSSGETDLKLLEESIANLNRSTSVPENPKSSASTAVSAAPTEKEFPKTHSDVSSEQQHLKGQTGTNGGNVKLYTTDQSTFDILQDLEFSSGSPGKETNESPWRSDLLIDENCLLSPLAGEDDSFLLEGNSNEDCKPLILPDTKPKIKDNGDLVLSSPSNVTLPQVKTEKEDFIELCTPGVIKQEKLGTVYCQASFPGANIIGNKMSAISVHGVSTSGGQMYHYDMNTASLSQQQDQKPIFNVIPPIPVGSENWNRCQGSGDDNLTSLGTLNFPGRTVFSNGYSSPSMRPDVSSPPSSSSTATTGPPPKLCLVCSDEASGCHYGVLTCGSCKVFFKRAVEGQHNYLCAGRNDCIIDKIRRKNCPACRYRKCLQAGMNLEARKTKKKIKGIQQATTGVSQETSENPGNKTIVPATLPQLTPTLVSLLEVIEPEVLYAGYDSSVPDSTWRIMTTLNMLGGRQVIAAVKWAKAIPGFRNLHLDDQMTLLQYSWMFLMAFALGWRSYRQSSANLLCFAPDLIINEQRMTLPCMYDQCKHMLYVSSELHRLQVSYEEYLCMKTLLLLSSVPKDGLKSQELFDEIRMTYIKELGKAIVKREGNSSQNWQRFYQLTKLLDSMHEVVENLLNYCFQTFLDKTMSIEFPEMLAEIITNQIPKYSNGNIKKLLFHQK
Procedure: In this assay, a fluorescence polarization assay kit (Panvera/Invitrogen, product number: P2893) was used. The recombinant human glucocorticoid receptor (product number: P2812), the Fluoromore (trademark)-labeled dexamethasone (GS Green, product number: P2813), the stabilizing peptide solution (product number: P2815), and the basic buffer solution (product number: P2814) which were used in the assay kit had been stored at −80° C. until used. A buffer solution for the assay was prepared by adding the basic buffer solution (10 fold dilution), the stabilizing peptide solution (10 fold dilution), and 1 mol/L DTT (1000 fold dilution to give a final concentration of 1 mmol/L).
The assay was performed as follows. […] The fluorescence polarization value of each well was measured using a plate reader (PerkinElmer, Fusion or Envision). […] To a positive control group, dexamethasone was added so as to give a final concentration of 1 μmol/L. The glucocorticoid receptor binding rate (%) was calculated by the following formula.
Glucocorticoid receptor binding rate (%)=100×[1-(fluorescence polarization value of test compound solution−fluorescence polarization value of positive control solution)/(fluorescence polarization value of negative control solution−fluorescence polarization value of positive control solution)]

SMILES: CC/C(=C1\c2cc3cnn(C)c3cc2COc2ccccc21)c1cccc(NS(C)(=O)=O)c1 [Compound 2, (Z)-5-{1-[3-(methanesulfonamide)phenyl]propylidene}-1-methyl-5,11-dihydrobenzo[6,7]oxepino[4,3-f]indazole]
- inhibitory activity (progesterone receptor binding rate) [1]: ≤ 10%
- inhibitory activity (glucocorticoid receptor binding rate) ([2]; at a concentration of 100 nmol/L or higher): ≥ 80%
- selectivity for human glucocorticoid receptor over progesterone receptor ([2]; from the results of Test Examples 1 and 2): selective inhibitory activity to human glucocorticoid receptors
